The term IC50 denotes the concentration that gives 50% inhibition.

Bounds are passed on as bounds.

Drawing on ChEMBL document CHEMBL1132678, “Imidazole-containing diarylether and diarylsulfone inhibitors of farnesyl-protein transferase” (Bioorg Med Chem Lett, 1999), this text covers IC50 for 22 compounds.

Test [1] concerns the target Protein farnesyltransferase (Bos taurus, UniProt P29702+P49355). Briefly: Inhibition of bovine Farnesyltransferase in vitro. The format is protein-complex assay.
Test [2] relates to Rat1. Kind of test: Inhibition of proliferation of v-Ha-ras-transformed RAT1 cells on poly-(HEMA)-coated plates. The note with it: Rattus norvegicus. The format is functional, cell-based.
Test [3] addresses Protein farnesyltransferase (Homo sapiens, UniProt P49354+P49356). Kind of test: Inhibition of Farnesyltransferase. The format is protein-complex assay.

With `Cc1cc(NCc2cncn2Cc2ccc(C#N)cc2)ccc1S(=O)(=O)c1ccccc1`, the 50% inhibitory concentration (IC50) is 1 nM in test [1] and 16 nM in test [2].

Consider `Cc1ncc(CNc2ccc(S(=O)(=O)c3ccccc3)cc2)n1Cc1ccc(C#N)cc1`, for which the IC50 in test [1] stood at 93 nM; in test [2] it was 177 nM.

As to `c1ccc(Oc2ccc(NCc3cnc[nH]3)cc2)cc1`, the IC50 in test [1] is > 100000 nM.

`O=[N+]([O-])c1ccc(CN(Cc2c[nH]cn2)c2cccc(Oc3ccccc3)c2)cc1` came in with an IC50 in test [1] of 3200 nM.

In test [1], `CCCCN(Cc1cncn1Cc1ccc(C#N)cc1)c1ccc(Oc2ccccc2)cc1` yielded a half-inhibitory concentration (IC50) of 42 nM.

As to `CCCCN(Cc1cn(Cc2ccc(C#N)cc2)cn1)c1ccc(Oc2ccccc2)cc1`, the IC50 in test [1] was > 100000 nM.

Take `Cc1cc(N(Cc2cnc(C)n2Cc2ccc(C#N)cc2)CC2CC2)ccc1S(=O)(=O)c1ccccc1`: the IC50 in test [1] was found to be 8 nM; in test [2], 109 nM.

Consider `N#Cc1ccc(Cn2cncc2CNc2ccc(Oc3ccccc3)cc2)cc1`, for which the 50% inhibitory concentration (IC50) in test [1] was 1300 nM.

As for `O=C(O)c1cccc(Oc2cccc(N(Cc3cnc[nH]3)Cc3cnc[nH]3)c2)c1`, half-maximal inhibition in test [1] (IC50) was put at 19 nM.

For the compound `N#Cc1ccc(Cn2cncc2CNc2ccc(S(=O)(=O)c3ccccc3)cc2)cc1`, the values for the IC50 in test [1] and in test [2] were 0.7 nM and 31 nM, respectively.

`N#Cc1ccc(CN(Cc2cncn2Cc2ccc(C#N)cc2)c2ccc(Oc3ccccc3)cc2)cc1`: in test [1], it took 8 nM to reach half-maximal inhibition (IC50).

As to `CCCCN(Cc1cnc[nH]1)c1ccc(Oc2ccccc2)cc1`, in test [1], the half-maximal inhibitory concentration (IC50) is > 100000 nM.

`N[C@H](CS)CNc1ccc(Oc2cccc(C(=O)O)c2)cc1` displayed an IC50 in test [1] of 0.4 nM.

Regarding `Cc1cc(N(Cc2cnc(C)n2Cc2ccc(C#N)cc2)C(=O)C2CC2)ccc1S(=O)(=O)c1ccccc1`, the IC50 in test [1] stood at 232 nM.

Consider `Cc1cc(NCc2cnc(C)n2Cc2ccc(C#N)cc2)ccc1S(=O)(=O)c1ccccc1`, for which the IC50 in test [1] came out at 0.45 nM; in test [2] it was 28 nM.

`N[C@@H](CS)CNc1cccc(Oc2cccc(C(=O)O)c2)c1`: it took 0.25 nM to reach half-maximal inhibition in test [1] (IC50).

In turn, `O=[N+]([O-])c1ccc(CN(Cc2cnc[nH]2)c2ccc(Oc3ccccc3)cc2)cc1` displayed an IC50 in test [1] of 1000 nM.

For `O=C(O)c1cccc(Oc2ccc(N(Cc3c[nH]cn3)Cc3c[nH]cn3)cc2)c1`, the IC50 in test [1] worked out at 2.6 nM.

`Cc1ncc(CN(Cc2ccc(C#N)cc2)c2ccc(S(=O)(=O)c3ccccc3)cc2)n1Cc1ccc(C#N)cc1` gave a 50% inhibitory concentration (IC50) in test [1] of 81 nM.

On to `CSCC[C@H](NC(=O)[C@H](Cc1c[nH]c2ccccc12)NC(=O)[C@@H](NC(=O)[C@@H](N)CS)C(C)C)C(=O)O`, for which, in test [3], the IC50 came to 525 nM.

`CCCCN(Cc1cncn1Cc1ccc(C#N)cc1)c1ccc(Sc2ccccc2)cc1` displayed a concentration for half-maximal inhibition (IC50) in test [1] of 140 nM.

As to `N#Cc1ccc(Cn2cncc2CNc2ccc(C(=O)c3ccccc3)cc2)cc1`, half-maximal inhibition in test [1] (IC50) was put at 0.8 nM.
